Series [1] addresses T1, HLA-B*57:01 (Homo sapiens, UniProt P01889, D201E/D98Y/E176V/E187L/E204Q/E69M/E70A/G107R/I90N/K202T/L105A/L119I/N104I/N87E/Q89R/Q94S/R106L/R155S/R180L/R86G/S101N/S121V/S35A/S48A/T118I/V36M/Y140S/Y91M). Nature of the series: LC-MRM-MS quantitation of HLA ligands and co-purified abacavir from abacavir treated C1R.B*57:01 cells. In kind it is cell-based. Particulars: C1R.B*57:01, 35 µM abacavir.

The test system of another series is C1R.B*57:01 cells. Briefly: Cellular proteome comparison by label free quantitation LC-MS/MS. Particulars: 35 µM abacavir, 48 h, 2,306 proteins, 5% FDR. In kind it is cell-based, human.
For series [2], the system named is abacavir responsive CD8+ T cells. Briefly: Intracellular cytokine staining of abacavir responsive CD8+ T cells stimulated with abacavir treated C1R.B*57:01. It is filed as cell-based, human. Particulars: 35 µM abacavir 0-30 h, three T cell lines. Here is the method:
Stimulator PBMCs were subsequently added to responder PBMC at a 2:1 responder:stimulator ratio and the final volume of culture made up to 2 ml with RF10. Cells were incubated at 37°C, 5% CO2 and fed with fresh media as required to sustain cell outgrowth. On day 5 of culture, cell media were supplemented with rhIL-2 (Cetus) at 20 U/ml and maintained at this concentration thereafter. […] C1R.B*57:01 were mixed with 1 × 10^5 T cells at a 1:2 ratio in a volume of 200 μl fresh RH10. […] Sigma-Aldrich) was added to a final concentration of 10 μg/ml and incubated a further 4 h. Cells were stained with anti-CD4-PE [clone RPA-T4, Becton Dickinson (BD) Biosciences, USA] and anti-CD8-PerCP-Cy™5.5 (clone SK1, BD Biosciences, 25 min, 4°C), fixed with 1% PFA/PBS (20 min, room temperature), washed in PBS, then permeabilised with 0.3% saponin (Sigma-Aldrich) in PBS containing anti-Interferon-γ (IFNγ)-PE-Cy™7 (clone B27, BD Biosciences) and anti-tumour necrosis factor (TNF)-PE-V450 (clone Mab11, BD Biosciences), and acquired by flow cytometry using an LSR II flow cytometer and BD […]™ software (BD). The percentage of CD8^+ T cells producing IFNγ and TNF was determined via analysis using FlowJo software (BD).

In series [3] the target is T1, HLA-B*57:01. Conditions: 60 µM abacavir.
In series [4] the target is T1, HLA-B*57:01. Particulars: 721.220.B*57:01 cells, 60 µM abacavir, 37 and 50°C vs 4°C.
The target of series [5] is T1, HLA-B*57:01. Particulars: 721.220.B*57:01 +/- tapasin, 60 µM abacavir 20 hrs, Brefeldin A 0-6 hrs.
The target in series [6] is T1, HLA-B*57:01. Conditions: ref [20]–[22]; cited from earlier work.
For a further series, the target named is HLA-B*58:01 (Homo sapiens, UniProt P01889, A329T/C349S/D201E/D98Y/E176V/E187L/E204Q/E69T/G107R/I218V/I90N/K202T/L105A/L119I/N104I/N87E/Q89R/Q94S/R106L/R155S/R180L/R86G/S101N/S121R/S35A/S48A/T118I/V127L/V306I/V36M/Y140S/Y91M). Conditions: ref [20]–[22]; cited from earlier work.

SMILES strings stand for the structures.

As to `Nc1nc(NC2CC2)c2ncn([C@H]3C=C[C@@H](CO)C3)c2n1` [abacavir], on HLA-B*57:01 [1], the “Time of abacavir treatment after which changes in the immunopeptidome were evident” value is on record as 2 h. At HLA-B*57:01 [1] (0-16 h), the “Co-purification of HLA-B*57:01-bound abacavir over the time course” value is “increasing amounts”. Moreover, the “Change in protein expression of the cellular proteome” value with C1R.B*57:01 cells is reported as “no protein showed significant changes in expression”. Also, in series [2], the “Immunogenicity of abacavir treated antigen presenting cells (IFNγ and/or TNF production by CD8+ T cells)” value is given as “increase in antigen presenting cell immunogenicity was observed over the first 12 h”. Besides, the “Effect on HLA-B*57:01 maturation (Endo-H resistance), tapasin-reconstituted” value at HLA-B*57:01 [3] (721.220.B*57:01.tapasin cells) is listed as “unaffected”. For the same compound, the “Effect on HLA-B*57:01 maturation (Endo-H resistance), tapasin absent” value at HLA-B*57:01 [3] (721.220.B*57:01 cells) is “did not significantly alter this pattern of biogenesis”. On HLA-B*57:01 [4], the “Effect on thermal stability profile of HLA-B*57:01, tapasin absent” value was “no significant impact on the thermal stability profile”. The “Effect on expression level and stability of cell surface HLA-B*57:01” value at HLA-B*57:01 [5] is recorded as “did not significantly alter either the expression level or the stability”. Moreover, on HLA-B*57:01 [6], the “Odds ratio of hypersensitivity reaction with HLA-B*57:01” value is over 500.
With `Oc1ncnc2[nH]ncc12` [allopurinol], the “Odds ratio of hypersensitivity reaction with HLA-B*58:01” value at HLA-B*58:01 is recorded as over 500.

Source of the values: paper PMC8170132, “Kinetics of Abacavir-Induced Remodelling of the Major Histocompatibility Complex Class I Peptide Repertoire” (Frontiers in Immunology, 2021).
